The results in this text go back to patent US7605272B2, “IGF-1R inhibitor” (Kyowa Hakko Kirin Co., Ltd., priority 2005, dated 2009).

For assay [1], the system named is NCI-H929. In words: Cytostatic activity on human multiple myeloma cell line NCI-H929 (WST-1). Type of assay: cell-based. The note with it: for inhibition at 10 µM / inhibition at 1 µM: Homo sapiens, NCI-H929, 72 h; for inhibition at 10 µM: 10 μmol/L, read-out: cytostatic rate (%) H929 (10 μmol/L); for inhibition at 1 µM: read-out: cytostatic rate (%) H929 (1 μmol/L). In a few lines: (§1)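 Cells pre-cultured 24 h at 37 °C, 5% CO2, then exposed 72 h to compound at final 1 or 10 μmol/L (0.1% DMSO). WST-1 added for 2 h, absorbance at 450 nm (ref 690 nm). Cytostatic rate = 100 minus relative growth, with DMSO control as 100% and blank as 0%.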

Assay [2] has as its system KMS-11. In words: Cytostatic activity on human multiple myeloma cell line KMS-11 (WST-1). Type of assay: cell-based. The note with it: for inhibition at 10 µM / inhibition at 1 µM: Homo sapiens, KMS-11, 72 h; for inhibition at 10 µM: 10 μmol/L, read-out: cytostatic rate (%) KMS-11 (10 μmol/L); for inhibition at 1 µM: read-out: cytostatic rate (%) KMS-11 (1 μmol/L). A digest of the protocol: as §1
In general terms: Formazan colour is commonly taken as a measure of viable cells.

The test system of assay [3] is AsPC-1. Description: Cytostatic activity on human pancreatic cancer cell line AsPC-1 (WST-1). The following applies: Homo sapiens, ASPC1, 72 h, 10 μmol/L, read-out: cytostatic rate (%) AsPC-1 (10 μmol/L). Format: cell-based. The protocol:
(§2) The cytostatic rates of the test compound on the human pancreatic cancer cell line AsPC-1 and the human colon cancer cell line Colo205 were determined in the following manner.
(§3) For culturing AsPC-1, RPMI 1640 medium containing 20% fetal bovine serum, 1 mmol/L sodium pyruvate, 10 mmol/L HEPES, 4.5 g/L glucose and penicillin/streptomycin (1:1). The Colo205 cell was cultured using RPMI 1640 medium containing 10% fetal bovine serum, 1 mmol/L sodium pyruvate, 10 mmol/L HEPES, 4.5 g/L glucose and penicillin/streptomycin (1:1) was used. Each 80 μL of the AsPC-1 cell having a concentration of 5×10^4 cells/mL (or the Colo205 having a concentration of 5×10^4 cells/mL) was inoculated to wells of a TC MICROWELL 96F plate (Nalge Nunc International, Catalog No. 167008) and was cultured in a 5% carbon dioxide gas incubator at 37° C. for 24 hours. Each 20 μL of a solution of the test compound in DMSO which was prepared to make the final concentration to 1 μmol/L or 10 μmol/L, was added to each well. Each 20 μL of DMSO was added to the control well and the blank well to a final concentration of 0.1%. After adding the test compound, the cell was incubated in a 5% carbon dioxide gas incubator at 37° C. for 72 hours except for the blank well. After adding 20 μL of WST-1 reagent which was diluted to 50% by RPMI medium to each well, the cells were further incubated at 37° C. for 2 hours. Then, the absorbances at 450 nm (reference wavelength: 690 nm) were determined with a microplate spectrophotometer SPECTRA max 340PC. The cytostatic rate (%) was then determined in the similar manner to the above multiple myeloma cell lines.

In assay [4] the test system is Colo205. Description: Cytostatic activity on human colon cancer cell line Colo205 (WST-1). Type of assay: cell-based. The following applies: Homo sapiens, COLO 205, 72 h, 10 μmol/L, read-out: cytostatic rate (%) Colo205 (10 μmol/L). The protocol:
as §2, §3

For assay [5], the target named is T1, IGF-1R (Homo sapiens, UniProt P08069).
T1 construct: purchased Upstate Co. 14-465
T1 sequence (P08069 959-1367 limits assumed): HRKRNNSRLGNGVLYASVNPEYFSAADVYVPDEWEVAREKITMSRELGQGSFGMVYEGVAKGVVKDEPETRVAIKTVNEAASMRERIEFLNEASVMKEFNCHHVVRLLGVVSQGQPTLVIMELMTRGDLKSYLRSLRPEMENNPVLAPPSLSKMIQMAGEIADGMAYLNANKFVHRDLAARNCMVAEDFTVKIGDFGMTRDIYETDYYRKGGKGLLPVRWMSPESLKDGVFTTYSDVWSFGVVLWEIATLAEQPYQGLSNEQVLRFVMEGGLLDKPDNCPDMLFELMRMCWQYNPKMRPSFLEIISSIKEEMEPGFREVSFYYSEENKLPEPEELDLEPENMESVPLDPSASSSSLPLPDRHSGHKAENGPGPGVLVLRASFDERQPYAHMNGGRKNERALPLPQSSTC
In words: IGF-1R inhibitory activity (kinase reaction, time-resolved fluoroimmunoassay). The following applies: test compound 10 μmol/L. Format: biochemical. A digest of the protocol:
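Compounds were tested at a single 10 μmol/L concentration. Each was incubated with recombinant IGF-1R (200 μg/L), 10 mmol/L ATP, MgCl2/MnCl2 and Na3VO4 (pH 7.5) on immobilized poly(Glu-Tyr) peptide for 30 min at 24° C. Eu-anti-phosphotyrosine time-resolved fluorescence (340/615 nm) gave relative activity against no-compound and no-enzyme wells, reported as % inhibition.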

The mark [6] stands for this setting: IGF-1R active recombinant enzyme.
The mark [7] stands for this setting: NCI-H929 cells, test compound 1 μmol/L, WST-1.
Where [8] appears, read: KMS-11 cells, test compound 1 μmol/L, WST-1.

Each structure is given as a SMILES string. Where two headings read alike, the source gives them in different places.

Turning to `Cn1cccc1C(=O)Nc1ccccc1/C=C/c1n[nH]c2ccccc12` [Compound 29, (E)-N-{2-[2-(1H-indazol-3-yl)vinyl]phenyl}-1-methyl-1H-pyrrole-2-carboxamide], the inhibition at 10 µM was found to be 117% in assay [1] (72 hours); 112% in assay [2] (72 hours); 66.1% in assay [3]; 114% in assay [4]; 97.9% in assay [5] (setting [6]).

Turning to `Cc1ccsc1C(=O)Nc1ccccc1/C=C/c1n[nH]c2ccccc12` [Compound 41, (E)-N-{2-[2-(1H-indazol-3-yl)vinyl]phenyl}-3-methylthiophene-2-carboxamide], the inhibition at 10 µM in assay [1] (72 hours) was found to be 121%; in assay [2] (72 hours), 109%; in assay [3], 85.5%; in assay [4] it was 115%; in assay [5] (setting [6]) it was 98.6%.

With `O=C(Nc1ccccc1/C=C/c1n[nH]c2ccccc12)c1cc2ccccc2s1` [Compound 46, (E)-N-{2-[2-(1H-indazol-3-yl)vinyl]phenyl}benzo[b]thiophene-2-carboxamide], the inhibition at 10 µM in assay [1] (72 hours) worked out at 118%; in assay [2] (72 hours) it was 115%; in assay [3], 120%; in assay [4], 112%; in assay [5] (setting [6]) it was 97.8%.

Take `O=C(Nc1ccccc1/C=C/c1n[nH]c2ccccc12)c1ccccc1` [Compound 85, (E)-N-{2-[2-(1H-indazol-3-yl)vinyl]phenyl}benzamide]: the inhibition at 10 µM stood at 134% in assay [1] (72 hours); 124% in assay [2] (72 hours); 125% in assay [3]; 116% in assay [4]; 99.5% in assay [5].

For `CCCS(=O)(=O)NCCOc1ccc(/C=C/c2n[nH]c3ccccc23)c(NC(=O)c2sccc2C)c1OC` [Compound 338, (E)-N-{6-[2-(1H-indazol-3-yl)vinyl]-2-methoxy-3-[2-(propylsulfonylamino)ethoxy]phenyl}-3-methylthiophene-2-carboxamide], the inhibition at 1 µM in assay [1] (setting [7]) stood at 120%; in assay [2] (setting [8]) it was 122%. The inhibition at 10 µM in assay [5] (setting [6]) was 99%.

As for `CCN(CCO)CCCOc1ccc(/C=C/c2n[nH]c3ccccc23)c(NC(=O)c2sccc2C)c1OC` [Compound 339, (E)-N-{3-{3-[N-ethyl(2-hydroxyethyl)amino]propoxy}-6-[2-(1H-indazol-3-yl)vinyl]-2-methoxyphenyl}-3-methylthiophene-2-carboxamide], the inhibition at 1 µM in assay [1] (setting [7]) came to 119%; in assay [2] (setting [8]), 118%. Besides, the inhibition at 10 µM in assay [5] (setting [6]) was found to be 104%.

Take `COc1c(OCCCN2CCC[C@H]2CO)ccc(/C=C/c2n[nH]c3ccccc23)c1NC(=O)c1sccc1C` [Compound 340, (E)-(s)-N-{3-[3-(2-hydroxymethylpyrrolidin-1-yl)propoxy]-6-[2-(1H-indazol-3-yl)vinyl]-2-methoxyphenyl}-3-methylthiophene-2-carboxamide]: the inhibition at 1 µM in assay [1] (setting [7]) came out at 121%; in assay [2] (setting [8]), 118%. The inhibition at 10 µM in assay [5] (setting [6]) worked out at 103%.

On to `COc1c(OCCCN2CCNC(=O)C2)ccc(/C=C/c2n[nH]c3ccccc23)c1NC(=O)c1sccc1C` [Compound 341, (E)-N-{6-[2-(1H-indazol-3-yl)vinyl]-2-methoxy-3-[3-(3-oxopiperazin-1-yl)propoxy]phenyl}-3-methylthiophene-2-carboxamide], for which the inhibition at 1 µM amounted to 120% in assay [1] (setting [7]) and 124% in assay [2] (setting [8]). In assay [5] (setting [6]), the inhibition at 10 µM came to 105%.

`COc1c(OCCCN2CCOCC2)ccc(/C=C/c2n[nH]c3ccccc23)c1NC(=O)c1sccc1C` [Compound 342, (E)-N-{6-[2-(1H-indazol-3-yl)vinyl]-2-methoxy-3-(3-morpholin-4-yl)propoxyphenyl}-3-methylthiophene-2-carboxamide]: in assay [1] (setting [7]), the “cytostatic rate (%) H929 (1 μmol/L)” value is 118.7%. In assay [2] (setting [8]), the “cytostatic rate (%) KMS-11 (1 μmol/L)” value is 122.6%. Moreover, the “inhibitory activity (%) at 10 μmol/L” value in assay [5] (setting [6]) came out at 101.6%.

For the compound `COc1c(OC(=O)CC(=O)N2CC[C@@H](O)C2)ccc(/C=C/c2n[nH]c3ccccc23)c1NC(=O)c1sccc1C` [Compound 343, (E)-N—(R)-{6-[2-(1H-indazol-3-yl)vinyl]-2-methoxy-3-[(3-hydroxypyrrolidine-1-ylcarbonyl)acetyloxy]phenyl}-3-methylthiophene-2-carboxamide], in assay [1] (setting [7]), the “cytostatic rate (%) H929 (1 μmol/L)” value is 127.5%. In addition, in assay [2] (setting [8]), the “cytostatic rate (%) KMS-11 (1 μmol/L)” value was 79%. Besides, the “inhibitory activity (%) at 10 μmol/L” value in assay [5] (setting [6]) is 98.4%.

For the compound `COc1c(OCCCN2CCC(O)CC2)ccc(/C=C/c2n[nH]c3ccccc23)c1NC(=O)c1sccc1C` [Compound 344, (E)-N-{3-[3-(4-hydroxypiperidin-1-yl)propoxy]-6-[2-(1H-indazol-3-yl)vinyl]-2-methoxyphenyl}-3-methylthiophene-2-carboxamide], the inhibition at 1 µM in assay [1] (setting [7]) came out at 133%; in assay [2] (setting [8]) it was 117%. Also, the inhibition at 10 µM in assay [5] (setting [6]) worked out at 97.4%.

For `COc1c(OCCCN2CC[C@@H](N)C2)ccc(/C=C/c2n[nH]c3ccccc23)c1NC(=O)c1sccc1C` [Compound 346, (R)-(E)-N-{3-[3-(3-aminopyrrolidin-1-yl)propoxy]-6-[2-(1H-indazol-3-yl)vinyl]-2-methoxyphenyl}-3-methylthiophene-2-carboxamide], the inhibition at 1 µM in assay [1] (1 μmol/L, 72 hours) was determined as 114%; in assay [2] (1 μmol/L, 72 hours) it was 97.2%. Moreover, in assay [5] (setting [6]), the inhibition at 10 µM worked out at 114%.

Turning to `COc1c(OCCCN(C)CCO)ccc(/C=C/c2n[nH]c3ccccc23)c1NC(=O)c1sccc1C` [Compound 347, (E)-N-{3-{3-[(2-hydroxyethyl)methylamino]propoxy}-6-[2-(1H-indazol-3-yl)vinyl]-2-methoxyphenyl}-3-methylthiophene-2-carboxamide], the inhibition at 1 µM was 116% in assay [1] (1 μmol/L, 72 hours) and 116% in assay [2] (1 μmol/L, 72 hours). Moreover, in assay [5] (setting [6]), the inhibition at 10 µM came to 106%.

As to `COc1c(OCCN2CCC(O)CC2)ccc(/C=C/c2n[nH]c3ccccc23)c1NC(=O)c1sccc1C` [Compound 349, (E)-{3-[2-(4-hydroxypiperidin-1-yl)ethoxy]-6-[2-(1H-indazol-3-yl)vinyl]-2-methoxyphenyl}-3-methylthiophene-2-carboxamide], the “cytostatic rate (%) H929 (1 μmol/L)” value in assay [1] (1 μmol/L, 72 hours) came to 116.3%. Further, in assay [2] (1 μmol/L, 72 hours), the “cytostatic rate (%) KMS-11 (1 μmol/L)” value was found to be 117.2%. Further, in assay [5] (setting [6]), the “inhibitory activity (%) at 10 μmol/L” value is listed as 101.9%.

Take `COc1c(OCCCN2CCC(CO)CC2)ccc(/C=C/c2n[nH]c3ccccc23)c1NC(=O)c1sccc1C` [Compound 350, (E)-N-(3-{3-[4-(hydroxymethyl)piperidin-1-yl]propoxy}-6-[2-(1H-indazol-3-yl)vinyl]-2-methoxyphenyl)-3-methylthiophene-2-carboxamide]: the inhibition at 1 µM worked out at 117% in assay [1] (1 μmol/L, 72 hours) and 117% in assay [2] (1 μmol/L, 72 hours). Also, the inhibition at 10 µM in assay [5] (setting [6]) was determined as 111%.

In the case of `Cn1ccnc1C(=O)Nc1ccccc1/C=C/c1n[nH]c2ccccc12` [Compound 352, (E)-N-{2-[2-(1H-indazol-3-yl)vinyl]phenyl}-1-methyl-1H-imidazole-2-carboxamide], the inhibition at 1 µM in assay [1] (1 μmol/L, 72 hours) turned out to be 108%; in assay [2] (1 μmol/L, 72 hours), 84.8%. The inhibition at 10 µM in assay [5] (setting [6]) was determined as 103%.

As to `Cc1c(Br)csc1C(=O)Nc1ccccc1/C=C/c1n[nH]c2ccccc12` [Compound 353, (E)-N-{2-[2-(1H-indazol-3-yl)vinyl]phenyl}-4-bromo-3-methylthiophene-2-carboxamide], the inhibition at 1 µM in assay [1] (1 μmol/L, 72 hours) came to 104%; in assay [2] (1 μmol/L, 72 hours) it was 77.4%. The inhibition at 10 µM in assay [5] (setting [6]) was 102%.
